The target of experiment [1] is T1, HIV-1 RT-associated RNase H function (Human immunodeficiency virus type 1 group M subtype B, UniProt P04585).
T1 construct: The 1:1 ration between the p66/p51 subunits was also verified; His6; made in house; host or cells: E. coli strain M15
Put plainly: HIV-1 DNA polymerase-independent RNase H activity determination (wt RT). The class given is biochemical. The conditions noted are these: for remaining activity at 100 µM: in the presence of 100 µM of the compound, read-out: Percentage of residual enzyme activity (RNase H); for IC50: concentration required to reduce the enzyme activity by 50%, read-out: RnaseH IC50. Here is the method: (§1) HIV-1 RT group M subtype B. Heterodimeric RT was expressed essentially as previously described. Briefly, E. coli strain M15 containing the p6HRT-prot vector was grown to an optical density at 600 nm of 0.7 and induced with 1.7 mM isopropyl β-D-1-thiogalactopyranoside (IPTG) for 4 h. Protein purification was carried out with a BioLogic LP system (Biorad), using a combination of immobilised metal affinity and ion exchange chromatography. Cell pellets were resuspended in lysis buffer (50 mM sodium phosphate buffer pH 7.8, containing 0.5 mg/mL lysozyme), incubated on ice for 20 min, and after adding NaCl to a final concentration of 0.3 M, were sonicated and centrifuged at […] for 1 h. The supernatant was loaded onto a Ni^2+-NTA-Sepharose column pre-equilibrated with loading buffer (50 mM sodium phosphate buffer pH 7.8, containing 0.3 M NaCl, 10% glycerol, and 10 mM imidazole) and washed thoroughly with wash buffer (50 mM sodium phosphate buffer pH 6.0, containing 0.3 M NaCl, 10% glycerol, and 80 mM imidazole). RT was eluted with an imidazole gradient in wash buffer (0–0.5 M). Fractions were collected, protein purity was checked by SDS-PAGE and found to be higher than 90%. The 1:1 ration between the p66/p51 subunits was also verified. Enzyme-containing fractions were pooled and diluted 1:1 with 50 mM sodium phosphate buffer pH 7.0, containing 10% glycerol; and then loaded into a Hi-trap heparin HP GE (Healthcare Lifescience) pre-equilibrated with 10 column volumes of loading buffer (50 mM sodium phosphate buffer pH 7.0, containing 10% glycerol and 150 mM NaCl). The column was then washed with loading buffer and the RT was eluted with Elute Buffer 2 (50 mM sodium phosphate pH 7.0, 10% glycerol, 1 M NaCl). Fractions were collected, protein was dialysed and stored in buffer containing 50 mM Tris-HCl pH 7.0, 25 mM NaCl, 1 mM EDTA, and 50% glycerol. Catalytic activities and protein concentrations were determined. Enzyme-containing fractions were pooled and aliquots were stored at −80 °C.
(§2) HIV RT-associated RNase H activity was measured as described[36] using the RNase H inhibitor RDS1759[11] as a control. In 100 µL reaction volume containing 50 mM Tris-HCl buffer pH 7.8, 6 mM MgCl2, 1 mM dithiothreitol (DTT), 80 mM KCl, 0.25 µM hybrid RNA/DNA 5′-GAUCUGAGCCUGGGAGCU-Fluorescin-3′ (HPLC, dry, QC: Mass Check) (available from Metabion) 5′-Dabcyl-AGCTCCCAGGCTCAGATC-3′ (HPLC, dry, QC: Mass Check), increasing concentrations of inhibitor, whose dilution were made in water, and 20 ng of wt RT according to a linear range of dose-response curve. The reaction mixture was incubated for 1 h at 37 °C, stopped by addition of EDTA and products were measured with a multilabel counter plate reader Victor 3 (Perkin Elmer model 1420–051) equipped with filters for 490/528 nm (excitation/emission wavelength).

Experiment [2] concerns HIV-1 integrase. More on the design: method as in earlier work. Particulars: cited from earlier work.
In experiment [3] the target is T2, HIV-1 RT-associated RDDP function (Human immunodeficiency virus type 1 group M subtype B, UniProt P04585).
T2 construct: The 1:1 ration between the p66/p51 subunits was also verified; His6; made in house; host or cells: E. coli strain M15
Kind of experiment: HIV-1 RNA-dependent DNA polymerase (RDDP) activity determination. The class given is biochemical. The conditions noted are these: for remaining activity at 100 µM: read-out: Percentage of residual enzyme activity (RDDP); for IC50: wt RT. On the procedure:
as §1
RNA-dependent DNA polymerase (RDDP) activity was measured as described[37] using the NNRTI Efavirenz as a control. In 25 µL volume containing 60 mM Tris-HCl buffer pH 8.1, 8 mM MgCl2, 60 mM KCl, 13 mM DTT, 2.5 µM poly (A)- oligo (dT), 100 µM dTTP, increasing concentrations of inhibitor, whose dilution were made in water, and 6 ng of wt RT according to a linear range of dose-response curve. After enzyme addition, the reaction mixture was incubated for 30 min at 37 °C and the stopped by addition of EDTA. Reaction products were detected by picogreen addition and measured with a multilabel counter plate reader Victor 3 (Perkin Elmer model 1420–051) equipped with filters for 502/523 nm (excitation/emission wavelength).

In experiment [4] the target is T3, HIV-1 RT R448A, RNase H function (Human immunodeficiency virus type 1 group M subtype B, UniProt P04585, R1035A).
T3 construct: introduce amino acid substitutions into the p66 HIV-1 RT subunit coded in a p6HRT- prot plasmid; His6; made in house; host or cells: E. coli strain M15
Kind of experiment: RNase H inhibition on mutated RT R448A. The class given is biochemical. On the procedure:
as §2
(§3) The QuikChange mutagenesis kit (Agilent Technologies Inc., Santa Clara, CA) was used to introduce amino acid substitutions into the p66 HIV-1 RT subunit coded in a p6HRT- prot plasmid by following the manufacturer’s instructions.
(§4) In order to verify this hypothesis, it was chosen to perform site-directed mutagenesis, determining the independent impact of several amino acid substitutions on the potency of the compound to inhibit the RNase H function. All the selected aminoacids are localised in the RNase H domain and are potentially crucial for the binding of RNase H function inhibitors. […]

The subject of experiment [5] is HIV-1 RT R448A, RNase H function. Put plainly: RNase H inhibition on mutated RT R448A. Format: biochemical. Particulars: RNase H IC50 ratio mutant/wt. On the procedure: as §2, §3, §4
The target in experiment [6] is T4, HIV-1 RT R557A, RNase H function (Human immunodeficiency virus type 1 group M subtype B, UniProt P04585, R1144A).
T4 construct: introduce amino acid substitutions into the p66 HIV-1 RT subunit coded in a p6HRT- prot plasmid; His6; made in house; host or cells: E. coli strain M15
Put plainly: RNase H inhibition on mutated RT R557A. Format: biochemical. Here is the method:
as §2, §3, §4

For experiment [7], the system named is HIV-1 RT R557A, RNase H function. Put plainly: RNase H inhibition on mutated RT R557A. Format: biochemical. Particulars: RNase H IC50 ratio mutant/wt. On the procedure:
as §2, §3, §4

Experiment [8] deals with T5, HIV-1 RT A502F, RNase H function (Human immunodeficiency virus type 1 group M subtype B, UniProt P04585, A1089F).
T5 construct: introduce amino acid substitutions into the p66 HIV-1 RT subunit coded in a p6HRT- prot plasmid; His6; made in house; host or cells: E. coli strain M15
Kind of experiment: RNase H inhibition on mutated RT A502F. The class given is biochemical.
Method: (§5) HIV RT-associated RNase H activity was measured as described[36] using the RNase H inhibitor RDS1759[11] as a control. In 100 µL reaction volume containing 50 mM Tris-HCl buffer pH 7.8, 6 mM MgCl2, 1 mM dithiothreitol (DTT), 80 mM KCl, 0.25 µM hybrid RNA/DNA 5′-[sequence]-Fluorescin-3′ (HPLC, dry, QC: Mass Check) (available from Metabion) 5′-Dabcyl-[sequence]-3′ (HPLC, dry, QC: Mass Check), increasing concentrations of inhibitor, whose dilution were made in water, and 20 ng of wt RT according to a linear range of dose-response curve. The reaction mixture was incubated for 1 h at 37 °C, stopped by addition of EDTA and products were measured with a multilabel counter plate reader Victor 3 (Perkin Elmer model 1420–051) equipped with filters for 490/528 nm (excitation/emission wavelength).
(§6) The next mutation involved the residue A502 located in the alpha helix, close to the second identified allosteric binding pocket. […] A502 residue was replaced by a phenylalanine with the aim to provoke a shift of alpha helix that might reduce the space between the two subunits p51 and p66 and therefore hinder the entrance of the compound in the pocket.

Experiment [9] has as its system HIV-1 RT A502F, RNase H function. Put plainly: RNase H inhibition on mutated RT A502F. Format: biochemical. Particulars: RNase H IC50 ratio mutant/wt.
Method: as §5, §6
The target in experiment [10] is T6, HIV-1 RT A508V, RNase H function (Human immunodeficiency virus type 1 group M subtype B, UniProt P04585, A1095V).
T6 construct: introduce amino acid substitutions into the p66 HIV-1 RT subunit coded in a p6HRT- prot plasmid; His6; made in house; host or cells: E. coli strain M15
Kind of experiment: RNase H inhibition on mutated RT A508V. Format: biochemical. Here is the method: as §2, §3, §4

In experiment [11] the target is HIV-1 RT L503F, RNase H function (Human immunodeficiency virus 1, UniProt P04585, L1090F). Put plainly: RNase H inhibition on mutated RT L503F. Format: biochemical. Particulars: row printed L503F. Here is the method: as §2, §3, §4
The target in experiment [12] is T7, HIV-1 RT V108F, RNase H function (Human immunodeficiency virus type 1 group M subtype B, UniProt P04585, V695F).
T7 construct: introduce amino acid substitutions into the p66 HIV-1 RT subunit coded in a p6HRT- prot plasmid; His6; made in house; host or cells: E. coli strain M15
Put plainly: RNase H inhibition on mutated RT V108F. The class given is biochemical. Here is the method:
as §2, §3, §4

Where [13] appears, read: in the presence of 100 µM of the compound.

A value given as a limit tells only on which side of the number the result lay.

In the case of `COc1ccc(-c2cc(=O)c3c(O)c(OC)c(OC)cc3o2)cc1` [Compound 1, salvigenin], the remaining activity at 100 µM in experiment [1] came to 80%. In addition, in experiment [1] (wt RT), the IC50 is over 100 µM.
As for `COc1cc2oc(-c3ccc(O)cc3)cc(=O)c2c(O)c1OC` [Compound 2, cirsimaritin], in experiment [1] (wt RT), the “decrease in RNase H inhibitory activity relative to cirsiliol (3)” value was determined as 10 folds and the IC50 was determined as 89 ± 7 µM.
As to `COc1cc2oc(-c3ccc(O)c(O)c3)cc(=O)c2c(O)c1OC` [Compound 3, cirsiliol], in [1] (wt RT), the IC50 was found to be 8.2 ± 0.6 µM. The “concentration inhibiting HIV-1 integrase” value in experiment [2] is on record as 12 µM.
As to `CC(=O)OCC12C(O)CC(C)C3(CC(c4ccoc4)OC3=O)C1CCC(=O)C21CO1` (stereo not shown) [Compound 4, teuflavin], the remaining activity at 100 µM in [1] is 80%. Besides, the IC50 in experiment [1] (wt RT) is over 100 µM.
For `CC(=O)OCC1=C2C(COC3OC(CO)C(O)C(O)C3OC(C)=O)CC(C)C3(CC(c4ccoc4)OC3=O)C2CCC1` (stereo not shown) [Compound 5, teuflavoside] the same measures were 74% and over 100 µM.
`CC(=O)OCC1=CCCC2C1=CCC(C)C21CC(c2ccoc2)OC1=O` (stereo not shown) [Compound 6, Flavuglaucin A]: in [1] (wt RT), the “folds less active on RNase H than flavuglaucin B (7)” value is on record as “about two” and the IC50 was 20.2 ± 2 µM. Besides, the remaining activity at 100 µM in [3] (setting [13]) is 80%. Also, the IC50 in experiment [3] was over 100 µM.
Regarding `CC1CC=C2C(CO)=CCCC2C12CC(c1ccoc1)OC2=O` (stereo not shown) [Compound 7, Flavuglaucin B], the IC50 in experiment [1] (wt RT) was 9.1 ± 0.2 µM; in experiment [3], over 100 µM; in experiment [4], 49.7 µM; in [6] it was 59.2 µM; in experiment [8] it was 32.8 µM; in [10], over 100 µM. In experiment [11], inhibition was half-maximal at 27.3 µM (IC50). The “Percentage of residual enzyme activity (RDDP)” value in experiment [3] (setting [13]) amounted to 80%. In experiment [5], the “loss in potency, R448A vs wild type” value worked out at 5.5 fold. Moreover, the “loss in potency, R557A vs wild type” value in experiment [7] was determined as 6.5 fold. In experiment [9], the “loss in potency, A502F vs wild type” value amounted to 3.5 fold. In addition, the “change of RNase H IC50 against V108F compared with the wild type enzyme” value in [12] is reported as “slight increase in IC50”.
Turning to `CC1=C2CCC(C)C3(CC(c4ccoc4)OC3=O)C2CCC1=O` (stereo not shown) [Compound 8, Flavuglaucin C], in experiment [1] (wt RT), the “folds less active on RNase H than flavuglaucin B (7)” value was “about six” and the half-maximal inhibitory concentration (IC50) amounted to 52.4 ± 0.4 µM. The remaining activity at 100 µM in experiment [3] (setting [13]) was 80%. The IC50 in experiment [3] was over 100 µM.
For `CC1CCC2=C(C=O)CCCC2C12CC(c1ccoc1)OC2=O` (stereo not shown) [Compound 9] the same measures were “four”, 36.4 ± 0.4 µM, 80% and over 100 µM.

(Values after PMC7952052, “Flavonoids and Acid-Hydrolysis derivatives of Neo-Clerodane diterpenes from Teucrium flavum subsp. glaucum as inhibitors of the HIV-1 reverse transcriptase–associated RNase H function” (Journal of Enzyme Inhibition and Medicinal Chemistry, 2021).)
